Data on one molecule can be found in patent US20210205638A1, “PARATHYROID HORMONE AND REGENERATION OF DEGENERATIVE DISCS DISEASE” (THE JOHNS HOPKINS UNIVERSITY, priority 2017, published 2021).

One experiment concerns the target T1, PTH1R (Mus musculus, UniProt P41593).
T1 construct: endogenous in cells; host or cells: primary mouse nucleus pulposus (NP) cells isolated from intervertebral discs of 15-day old male mice
T1 sequence (P41593 27-591): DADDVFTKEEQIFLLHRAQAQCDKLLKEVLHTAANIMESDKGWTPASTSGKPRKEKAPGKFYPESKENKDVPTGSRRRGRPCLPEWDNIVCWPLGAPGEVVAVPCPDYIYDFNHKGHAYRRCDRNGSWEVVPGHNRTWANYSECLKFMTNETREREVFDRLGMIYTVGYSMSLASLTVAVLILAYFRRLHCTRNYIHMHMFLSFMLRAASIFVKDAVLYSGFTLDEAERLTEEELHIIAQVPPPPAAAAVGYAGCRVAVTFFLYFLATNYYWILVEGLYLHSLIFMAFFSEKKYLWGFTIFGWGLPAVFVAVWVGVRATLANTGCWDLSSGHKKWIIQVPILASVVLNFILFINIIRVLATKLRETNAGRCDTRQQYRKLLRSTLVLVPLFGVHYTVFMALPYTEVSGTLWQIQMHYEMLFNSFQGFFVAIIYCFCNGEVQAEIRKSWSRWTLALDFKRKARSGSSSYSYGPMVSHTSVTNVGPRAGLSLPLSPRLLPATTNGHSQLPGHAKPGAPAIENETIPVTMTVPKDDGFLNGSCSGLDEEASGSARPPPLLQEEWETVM
Description: Primary cilia visualization and co-localization in NP cells. In kind it is cell-based. As to the method: The localization of PTH signaling components within NP cells was investigated through immunocytochemistry after 48 hours of serum starvation (DMEM, 0.5% FBS, 1% P/S). Cells were treated with PTH (recombinant human PTH, […], Bachem Calif., Inc. King of Prussia, Pa., USA.) or shear stress (1 dyn/cm^2) with times of exposure for 30 minutes, fixed and stained for acetylated α-tubulin of primary cilia, PTH1R (Abcam, 1:100) and pCREP (Abcam, 1:500). Coverslips were mounted with Fluoroshield-DAPI. All cells were imaged using a Zeiss LSM710 META Confocal Laser Scanning microscope fitted with a 63× objective. Region of interest were selected manually using ImageJ software. The intensity profiles along the cilia have been performed by tracing a line across the length of the primary cilia and measuring intensity along this line using ImageJ software. Average intensities in the ciliary region, were measured on at least 30 ciliated cells per condition.

For the next experiment, the system named is β6 integrin. As to the kind of experiment: qRT-PCR of integrin mRNA in NP tissue of aged mice. In kind it is in vivo, mouse. Particulars: NP cells of the aged mice. The procedure: (§1) After protein extraction, specimen from the same group of mice were prepared for RNA extraction using TRIzol reagent (Invitogen) according to the manufacturer's instruction. The purity of RNA was tested by measuring the absorbance at 260 and 280 nm. For qRT-PCR, two micrograms of RNA was reverse transcribed into cDNA using the SuperScript firststrand synthesis system (Invitrogen) and analyzed with SYBR Green-Master Mix (Qiagen) in the thermal cycler with two sets of primers specific for each target gene. Relative expression was calculated for each gene by the 2^−ΔΔCT method, with GAPDH for normalization.
Background: In qPCR the cycle at which signal appears reflects the starting amount.

For a further experiment, the system named is NP tissue. As to the kind of experiment: iPTH in PTH1R KO mice: Western blot of NP tissue. It is filed as in vivo, mouse. As to the method:
(§2) The 11 month-old PTH1R^+/+ and PTH1R^−/− male mice were randomized into four groups: PTH1R^+/++PTH (1-34), PTH1R^+/++Vehicle, PTH1R^−/−+PTH (1-34) and PTH1R^−/−+Vehicle groups (n=8 per group). The 11 month-olds IFT88^+/+ and IFT88^−/− male mice were randomized into four groups: IFT88^+/++PTH (1-34), IFT88^+/++Vehicle, IFT88^−/−+PTH (1-34) and IFT88^−/−+Vehicle groups (n=8 per group). Mice were subcutaneously injected with either PTH (1-34) or vehicle (1 mM acetic acid in phosphate buffered saline (PBS) with equivalent volume of PTH) daily, 5 days per week, and all mice were sacrificed 4 weeks after treatment with PTH (1-34)/vehicle.
Western blot analyses were conducted on the protein lysates from in vitro cultured NP cells or NP tissues from mice at specific time points after PTH (1-34) treatment and human at different ages with lumbar disc degeneration. The protein extract was centrifuged, the concentration of supernatant evaluated by DC protein assay (Bio-Rad Laboratories), and then separated by SDS-PAGE and blotted on a polyvinylidene fluoride membrane (Bio-Rad Laboratories). Following incubation in specific antibodies, we detected proteins using an enhanced chemiluminescence kit (Amersham Biosciences). We used specific antibodies recognizing rabbit CTGF (CCN2) (Abcam, 1:1000), Aggrecan (ACAN) (Abcan, 1:1000), p-Smad2 (Cell Signaling Technology Inc., 1:1000), Smad2 (Cell Signaling Technology Inc., 1:1000), GAPDH (Cell Signaling Technology Inc., 1:1000), CREB (Abcam, 1:2500), pCREB (Abcam, 1:2500), PTH1R PRB-635P (Covance, 1:100), PTH1R PRB-640P (Covance, 1:500) and goat integrin β6 (Santa Cruz, 1:500) to examine the protein concentrations in the lysates. Co-immunoprecipitation analyses were conducted on the nuclear and cytoplasmic protein extraction using NE-PER Nuclear and Cytoplasmic Extraction Kit (Pierce Thermo Scientific, 78833) from in vitro cultured NP cells treated with PTH (1-34) or vehicle.

A further experiment has as its system NP cells. Description: iPTH in PTH1R KO and wild-type mice: qRT-PCR of CCN2 and ACAN. It is filed as in vivo, mouse. As to the method: as §2, §1

With `CC[C@H](C)[C@H](NC(=O)[C@H](CCC(=O)O)NC(=O)[C@H](CO)NC(=O)[C@@H](NC(=O)[C@@H](N)CO)C(C)C)C(=O)N[C@@H](CCC(N)=O)C(=O)N[C@@H](CC(C)C)C(=O)N[C@@H](CCSC)C(=O)N[C@@H](Cc1cnc[nH]1)C(=O)N[C@@H](CC(N)=O)C(=O)N[C@@H](CC(C)C)C(=O)NCC(=O)N[C@@H](CCCCN)C(=O)N[C@@H](Cc1cnc[nH]1)C(=O)N[C@@H](CC(C)C)C(=O)N[C@@H](CC(N)=O)C(=O)N[C@@H](CO)C(=O)N[C@@H](CCSC)C(=O)N[C@@H](CCC(=O)O)C(=O)N[C@@H](CCCN=C(N)N)C(=O)N[C@H](C(=O)N[C@@H](CCC(=O)O)C(=O)N[C@@H](Cc1c[nH]c2ccccc12)C(=O)N[C@@H](CC(C)C)C(=O)N[C@@H](CCCN=C(N)N)C(=O)N[C@@H](CCCCN)C(=O)N[C@@H](CCCCN)C(=O)N[C@@H](CC(C)C)C(=O)N[C@@H](CCC(N)=O)C(=O)N[C@@H](CC(=O)O)C(=O)N[C@H](C(=O)N[C@@H](Cc1cnc[nH]1)C(=O)N[C@@H](CC(N)=O)C(=O)N[C@@H](Cc1ccccc1)C(=O)O)C(C)C)C(C)C` [PTH (1-34), teriparatide], on PTH1R, the “start of translocation of PTH1R to cilia” value stood at 10 min and the “translocation of PTH1R to cilia” value is listed as “stimulated translocation of PTH1R to cilia significantly”. Besides, on PTH1R (co-immunostaining with acetylated tubulin), the pCREB in cilia result is listed as “increased”. Moreover, at PTH1R (knockdown of pallidin with siRNA), the “PTH-enhanced transport of PTH1R to cilia” value is “blocked”. Further, the “mRNA expression of β6 integrin” value in the experiment on β6 integrin is on record as “specifically induced”. Further, in the experiment on NP tissue, the “PTH induced increase in level of ACAN” value is recorded as “diminished”, the “PTH induced increase in level of CCN2” value was “diminished” and the “PTH induced increase in level of pSmad2” value is reported as “diminished”. Also, in the experiment with NP cells (NP cells of wild-type mice), the “mRNA expression of ACAN” value was “significantly increased” and the “mRNA expression of CCN2” value is recorded as “significantly increased”. For the same molecule, in the experiment with NP cells (PTH1R KO mice), the “PTH increase of mRNA expression of ACAN” value was “blunted” and the “PTH increase of mRNA expression of CCN2” value is recorded as “blunted”.
